Key:
Test in all cases: selective drug sensitivity score (sDSS, relative to normal bone marrow) (sDSS (score)); higher = more potent and effective on the cell line relative to normal bone marrow cells
Settings in all cases: 72 h
[1] = system: RCH-ACV
[2] = system: CCRF-HSB2
[3] = system: ALL-PO
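Also: ALL cell lines in 384-well plates, five doses spanning 10,000-fold, each plate scaled between vehicle and 100 µmol/L benzalkonium chloride controls, sDSS an adapted area-under-curve metric.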

| SMILES | selective drug sensitivity score [1] | selective drug sensitivity score [2] | selective drug sensitivity score [3] |
| --- | --- | --- | --- |
| Cn1nnc2c(C(N)=O)ncn2c1=O [Temozolomide] (top concentration 100000 nM) | 6.66 | 2.06 | -0.04 |
| CN1CCC(COc2cnc(-c3cccc(Cn4nc(-c5cccc(C#N)c5)ccc4=O)c3)nc2)CC1 [Tepotinib] (top concentration 1000 nM) | 0.42 | 0.02 | -0.08 |
| NC(=S)N/N=C/c1ncccc1N [Triapine] (top concentration 10000 nM) | 7.38 | 8.48 | 2.28 |
| NC(=O)c1cccc(-c2cccc(OC(=O)NC3CCCCC3)c2)c1 [URB597] (top concentration 1000 nM) | -0.46 | -0.46 | -0.46 |
| COc1cc2/c(=N/c3ccc(Br)cc3F)nc[nH]c2cc1OCC1CCN(C)CC1 [Vandetanib] (top concentration 1000 nM) | -0.22 | 11.6 | -0.22 |
| COc1cccc(-c2ccc(NC(=O)C3=C(C(=O)O)CCC3)c(F)c2)c1 [Vidofludimus] (top concentration 10000 nM) | 8.8 | 4 | 2.6 |
| CC[C@]12C=CCN3CC[C@@]4(c5cc([C@@]6(C(=O)OC)C[C@@H]7C[C@@H](C(C)(F)F)CN(Cc8c6[nH]c6ccccc86)C7)c(OC)cc5N(C)[C@H]4[C@@](O)(C(=O)OC)[C@@H]1OC(C)=O)[C@@H]32 [Vinflunine] (top concentration 1000 nM) | 3.98 | 4.48 | 1.68 |
